Laboratory results published in ChEMBL document CHEMBL2040784, “Design and synthesis of peptides from bacterial ParE toxin as inhibitors of topoisomerases” (Eur J Med Chem, 2012).
Active and inactive are the calls of the source. No cut-off for these calls is given here. Where a SMILES comes first, the peptide text is derived from it.

Legend:
[1] = tested on: Escherichia coli; assay: Inhibition of Escherichia coli DNA gyrase supercoiling activity using relaxed pBR322 DNA after 1 hr by gel electrophoresis assay
[2] = biological target: DNA topoisomerase 2-alpha (Homo sapiens) (UniProt P11388); assay: Inhibition of human topoisomerase 2-mediated DNA cleavage assessed as relaxation of supercoiled pBR322 after 1 hr by gel electrophoresis assay
Chain of DNA topoisomerase 2-alpha (Homo sapiens) (P11388 whole entry): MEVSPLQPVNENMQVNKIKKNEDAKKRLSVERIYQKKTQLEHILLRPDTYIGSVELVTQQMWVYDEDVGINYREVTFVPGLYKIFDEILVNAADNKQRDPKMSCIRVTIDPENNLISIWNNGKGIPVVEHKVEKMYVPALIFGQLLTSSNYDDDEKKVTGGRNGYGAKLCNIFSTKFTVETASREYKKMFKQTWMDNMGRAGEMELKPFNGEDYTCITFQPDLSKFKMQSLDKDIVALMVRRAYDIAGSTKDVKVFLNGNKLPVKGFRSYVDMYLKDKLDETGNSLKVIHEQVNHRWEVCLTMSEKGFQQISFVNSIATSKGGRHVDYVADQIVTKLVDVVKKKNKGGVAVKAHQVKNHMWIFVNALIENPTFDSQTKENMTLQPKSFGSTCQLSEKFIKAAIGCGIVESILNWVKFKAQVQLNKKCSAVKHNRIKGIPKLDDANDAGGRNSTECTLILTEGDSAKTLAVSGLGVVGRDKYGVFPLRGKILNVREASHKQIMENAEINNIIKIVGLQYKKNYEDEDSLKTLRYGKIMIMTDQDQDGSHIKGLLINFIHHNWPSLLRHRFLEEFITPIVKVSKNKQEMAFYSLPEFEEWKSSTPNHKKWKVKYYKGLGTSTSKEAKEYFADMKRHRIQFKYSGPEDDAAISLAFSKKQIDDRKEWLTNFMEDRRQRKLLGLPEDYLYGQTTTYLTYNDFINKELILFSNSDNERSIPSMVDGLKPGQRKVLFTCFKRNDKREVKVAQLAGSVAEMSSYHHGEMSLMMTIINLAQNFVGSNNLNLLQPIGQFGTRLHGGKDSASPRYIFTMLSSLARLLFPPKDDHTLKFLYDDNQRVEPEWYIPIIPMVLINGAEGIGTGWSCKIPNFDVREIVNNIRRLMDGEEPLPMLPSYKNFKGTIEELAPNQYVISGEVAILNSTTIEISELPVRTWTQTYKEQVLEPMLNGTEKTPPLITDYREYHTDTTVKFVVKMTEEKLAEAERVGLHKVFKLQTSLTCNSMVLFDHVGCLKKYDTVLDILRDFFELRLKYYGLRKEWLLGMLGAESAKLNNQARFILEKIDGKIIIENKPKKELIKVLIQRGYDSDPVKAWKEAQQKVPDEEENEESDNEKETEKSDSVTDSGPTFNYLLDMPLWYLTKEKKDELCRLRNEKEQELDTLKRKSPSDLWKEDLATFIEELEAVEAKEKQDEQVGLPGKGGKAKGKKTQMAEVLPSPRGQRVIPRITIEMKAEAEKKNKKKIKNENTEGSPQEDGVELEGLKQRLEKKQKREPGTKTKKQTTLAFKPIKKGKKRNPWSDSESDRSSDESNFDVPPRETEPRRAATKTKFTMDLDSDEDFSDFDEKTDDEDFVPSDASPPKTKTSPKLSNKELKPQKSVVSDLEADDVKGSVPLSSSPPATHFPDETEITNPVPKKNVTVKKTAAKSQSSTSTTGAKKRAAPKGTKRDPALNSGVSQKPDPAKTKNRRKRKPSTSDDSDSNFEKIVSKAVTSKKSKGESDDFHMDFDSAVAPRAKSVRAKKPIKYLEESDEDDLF

[3] = tested on: Escherichia coli; assay: Inhibition of Escherichia coli topoisomerase-4-mediated DNA cleavage assessed as relaxation of supercoiled pBR322 after 1 hr by gel electrophoresis assay
[4] = tested on: Escherichia coli; assay: Inhibition of Escherichia coli topoisomerase-4-mediated DNA cleavage assessed as relaxation of supercoiled pBR322 at <75 umol/L after 1 hr by gel electrophoresis assay
[5] = tested on: Escherichia coli; assay: Inhibition of Escherichia coli DNA gyrase supercoiling activity using relaxed pBR322 DNA at 20 umol/L after 1 hr by gel electrophoresis assay

IC100 [1] | IC100 [2] | IC100 [3] | inhibition [4] | inhibition [5] | inhibition [2] | Molecule
50 µmol/L | 50 µmol/L | 25 µmol/L |  |  |  | CC[C@H](C)[C@H](NC(=O)[C@H](CCSC)NC(=O)[C@H](CCCNC(=N)N)NC(=O)[C@@H](N)CC(C)C)C(=O)N[C@@H](Cc1cnc[nH]1)C(=O)N[C@@H](CS)C(=O)N[C@@H](CCC(=O)O)C(=O)N[C@@H](Cc1cnc[nH]1)C(=O)N[C@@H](Cc1cnc[nH]1)C(=O)N[C@@H](Cc1ccc(O)cc1)C(=O)N[C@H](C(=O)N[C@@H](Cc1ccccc1)C(=O)N[C@@H](CS)C(=O)N[C@@H](CC(C)C)C(=O)N1CCC[C@H]1C(=O)N[C@@H](Cc1cnc[nH]1)C(=O)NCC(=O)N[C@@H](CO)C(=O)N[C@@H](C)C(=O)O)C(C)C (H-LRMIHCEHHYVFCLPHGSA-OH)
 |  |  | inactive |  |  | H-HYVFCLPHGSAPALVVAIFHERMDLMARLSERLNIES-OH
> 20 µmol/L |  | 10 µmol/L |  | 93% | inactive | H-PALVVAIFHERMDLMARLSER-OH
 |  |  |  |  | inactive | CC[C@H](C)[C@H](NC(=O)[C@H](C)NC(=O)[C@@H](NC(=O)[C@@H](NC(=O)[C@H](CC(C)C)NC(=O)[C@H](C)NC(=O)[C@@H]1CCCN1C(=O)[C@H](C)NC(=O)[C@H](CO)NC(=O)CNC(=O)[C@H](Cc1cnc[nH]1)NC(=O)[C@@H]1CCCN1C(=O)[C@H](CC(C)C)NC(=O)[C@H](CS)NC(=O)[C@H](Cc1ccccc1)NC(=O)[C@@H](NC(=O)[C@H](Cc1ccc(O)cc1)NC(=O)[C@H](Cc1cnc[nH]1)NC(=O)[C@H](Cc1cnc[nH]1)NC(=O)[C@H](CCC(=O)O)NC(=O)[C@H](CS)NC(=O)[C@H](Cc1cnc[nH]1)NC(=O)[C@@H](NC(=O)[C@H](CCSC)NC(=O)[C@H](CCCNC(=N)N)NC(=O)[C@@H](N)CC(C)C)[C@@H](C)CC)C(C)C)C(C)C)C(C)C)C(=O)N[C@@H](Cc1ccccc1)C(=O)O (H-LRMIHCEHHYVFCLPHGSAPALVVAIF-OH)
